“And” between values parts separate entries of the source, which are not always exact repeats. Equal entries are not always repeated.

Data set [1] deals with P. falciparum stage III–IV gametocytes. In words: P. falciparum gametocyte viability assay (MitoTracker, flow cytometry), stage III-IV. It is filed as cell-based, Plasmodium falciparum. The following applies: 48 h; for Gametocyte stage III-IV viability, percentage of control: replicate values, source data Fig. 2C. The method in brief:
(§1)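 Magnetically enriched gametocytes, stage III-IV (day 7) or stage V (day 10), were exposed to serially diluted compounds in medium with 50 mM N-acetyl-D-glucosamine for 48 hours at 37 °C, microaerophilic. Staining with 500 nM MitoTracker Deep Red FM and Hoechst, then flow cytometry, gave percentage live versus dead gametocytes.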

Data set [2] has as its system P. falciparum stage V gametocytes. In words: P. falciparum gametocyte viability assay (MitoTracker, flow cytometry), stage V. The data set is classed as cell-based, Plasmodium falciparum. The note with it: 48 h. A digest of the protocol: as §1
Data set [3] deals with human hepatoma cells (Huh7). The data set can be described thus: Human hepatoma viability assay (CellTiter-Blue). It is filed as cell-based. The note with it: Homo sapiens, Huh-7; 48 h, Huh7; read-out: IC50, human hepatoma inhibition (viability). A digest of the protocol:
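Huh7 cells (10,000/well) were seeded and treated the next day with serially diluted compound or DMSO, with media partially renewed with fresh dilutions over two days.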

Data set [4] concerns human foreskin fibroblasts (HFF). In words: Human foreskin fibroblast growth inhibition assay (SYBR Safe). It is filed as cell-based. The following applies: Homo sapiens, Fibroblast; 72 h, HFF; read-out: IC50, human fibroblast growth inhibition. A digest of the protocol: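 About 5000 HFF cells per well incubated with compound serial dilutions for 72 hours at 37 °C, until confluent. Growth quantified by DNA content: freeze-thaw, then SYBR Safe (1/10,000 final) in lysis buffer, fluorescence 490/520 nm. 10 µg/mL cycloheximide defines background (no growth).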

In the case of `COc1cc(NC(C)CCCN)c2ncccc2c1` (stereo not shown) [Primaquine, primaquine, reference compound], the “Gametocyte stage III-IV viability, percentage of control” value was 95.42% and 99.73% and 94.08% and 101.8% and 105.1% and 104.7% and 100.9% (2×) and 98.19% and 96.58% in data set [1] (0.781250000 uM, 0.78125 µM); 95.15% (2×) and 94.61% and 99.24% and 100.4% and 98.94% and 101.3% and 96.75% and 94.78% and 98.39% and 95.38% in data set [1] (1.562500000 uM, 1.5625 µM); 98.92% and 97.04% and 95.42% and 93.41% and 94.06% and 98.34% and 98.94% and 97.34% and 97.99% and 97.59% in data set [1] (3.125000000 uM, 3.125 µM); 98.92% and 103.8% and 95.15% and 101.3% and 99.57% and 96.95% and 89.77% and 92.16% and 101.4% and 98.59% and 97.59% in data set [1] (6.250000000 uM, 6.25 µM); 94.88% and 91.65% and 92.46% and 91.95% and 85.99% and 84% and 83.2% and 99.8% and 98.59% and 96.58% in data set [1] (12.500000000 uM, 12.5 µM); 79.16% and 90.84% and 90.57% and 89.5% and 87.42% and 88.71% and 66.47% and 62.28% and 62.48% and 96.99% and 92.97% and 89.75% in data set [1] (25.000000000 uM). In addition, the “Gametocyte stage III-IV viability, percentage of control” value in data set [1] (50.000000000 uM) is 68.48% and 81.96% and 79.26% and 79.53% and 71.16% and 70.66% and 55.31% and 29.42% and 60.69% and 80.71% and 75.49% and 72.07%; in data set [1] (100.000000000 uM), 13.88% and 70.94% and 81.83% and 86.47% and 12.9% and 10.48% and -20.11% and -20.13% and -19.64% and 38.56% and 39.79% and 36.92%; in data set [1] (200.000000000 uM), -26.52% and -4.004% and -1.274% and -24.53% and -24.5% and -24.31% and -27.02% and -23.13% and -23.83%. Also, the viability at 0.78125 µM in data set [1] (Plasmodium falciparum, read-out: Gametocyte stage III-IV viability, percentage of control, 0.781250000 uM, 48 h, replicate values, source data Fig. 2C) stood at 101%. Also, in data set [1] (Plasmodium falciparum, read-out: Gametocyte stage III-IV viability, percentage of control, 1.562500000 uM, 48 h, replicate values, source data Fig. 2C), the viability at 1.5625 µM came out at 98.8%. In data set [1] (Plasmodium falciparum, read-out: Gametocyte stage III-IV viability, percentage of control, 3.125000000 uM, 48 h, replicate values, source data Fig. 2C), the viability at 3.125 µM was found to be 93.3%. Besides, in data set [1] (Plasmodium falciparum, read-out: Gametocyte stage III-IV viability, percentage of control, 6.250000000 uM, 48 h, replicate values, source data Fig. 2C), the viability at 6.25 µM was 94.2%. For the same molecule, the viability at 12.5 µM in data set [1] (Plasmodium falciparum, read-out: Gametocyte stage III-IV viability, percentage of control, 12.500000000 uM, 48 h, replicate values, source data Fig. 2C) was 89%. In addition, the half-maximal inhibitory concentration (IC50) in data set [1] (Plasmodium falciparum, read-out: IC50, P. falciparum gametocyte stage III-IV inhibition) is 60 µM; in data set [2] (Plasmodium falciparum, read-out: IC50, P. falciparum gametocyte stage V inhibition) it was 14.8 µM; in data set [3] it was 18.4 µM; in data set [4], 41.8 µM. Further, the “Gametocyte stage V viability, percentage of control” value in data set [2] (1.562500000 uM, replicate values, source data Fig. 2D, 1.5625 µM) is 97.48% and 95.25% and 88.04%.

Values taken from paper PMC11251039, “Harnessing cholesterol uptake of malaria parasites for therapeutic applications” (EMBO Molecular Medicine, 2024).
